Test results reported in PMC6254361, “The properties of Msh2–Msh6 ATP binding mutants suggest a signal amplification mechanism in DNA mismatch repair” (The Journal of Biological Chemistry, 2018).

Target: T1, Msh2–Msh6 (Saccharomyces cerevisiae, UniProt P25847+Q03834, P25847:K694R)
T1 sequence (P25847 1-964 K694R): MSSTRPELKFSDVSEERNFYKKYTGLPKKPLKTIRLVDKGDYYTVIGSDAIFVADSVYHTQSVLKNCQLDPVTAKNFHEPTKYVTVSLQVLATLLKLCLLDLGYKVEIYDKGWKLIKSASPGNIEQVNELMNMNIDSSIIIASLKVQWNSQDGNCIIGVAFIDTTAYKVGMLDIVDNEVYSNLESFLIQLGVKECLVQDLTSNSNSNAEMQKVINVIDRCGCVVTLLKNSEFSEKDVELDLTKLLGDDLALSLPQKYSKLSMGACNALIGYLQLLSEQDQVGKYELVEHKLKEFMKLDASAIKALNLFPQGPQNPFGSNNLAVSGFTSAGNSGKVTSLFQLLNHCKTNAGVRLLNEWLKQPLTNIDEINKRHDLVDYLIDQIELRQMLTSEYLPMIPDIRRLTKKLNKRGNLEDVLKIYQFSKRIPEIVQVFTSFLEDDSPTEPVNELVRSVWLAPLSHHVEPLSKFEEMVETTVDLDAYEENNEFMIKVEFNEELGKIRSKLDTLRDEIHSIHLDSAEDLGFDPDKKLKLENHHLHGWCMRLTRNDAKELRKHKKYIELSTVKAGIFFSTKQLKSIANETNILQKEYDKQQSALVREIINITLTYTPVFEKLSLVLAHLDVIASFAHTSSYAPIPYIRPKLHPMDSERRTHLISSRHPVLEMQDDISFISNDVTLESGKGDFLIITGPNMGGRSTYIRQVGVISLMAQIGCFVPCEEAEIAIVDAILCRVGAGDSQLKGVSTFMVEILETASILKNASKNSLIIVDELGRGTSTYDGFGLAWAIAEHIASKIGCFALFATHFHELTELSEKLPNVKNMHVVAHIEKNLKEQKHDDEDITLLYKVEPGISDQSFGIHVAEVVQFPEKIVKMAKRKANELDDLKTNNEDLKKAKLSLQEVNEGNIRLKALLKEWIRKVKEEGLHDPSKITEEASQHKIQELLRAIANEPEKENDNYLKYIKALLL
T1 sequence (Q03834 1-1242): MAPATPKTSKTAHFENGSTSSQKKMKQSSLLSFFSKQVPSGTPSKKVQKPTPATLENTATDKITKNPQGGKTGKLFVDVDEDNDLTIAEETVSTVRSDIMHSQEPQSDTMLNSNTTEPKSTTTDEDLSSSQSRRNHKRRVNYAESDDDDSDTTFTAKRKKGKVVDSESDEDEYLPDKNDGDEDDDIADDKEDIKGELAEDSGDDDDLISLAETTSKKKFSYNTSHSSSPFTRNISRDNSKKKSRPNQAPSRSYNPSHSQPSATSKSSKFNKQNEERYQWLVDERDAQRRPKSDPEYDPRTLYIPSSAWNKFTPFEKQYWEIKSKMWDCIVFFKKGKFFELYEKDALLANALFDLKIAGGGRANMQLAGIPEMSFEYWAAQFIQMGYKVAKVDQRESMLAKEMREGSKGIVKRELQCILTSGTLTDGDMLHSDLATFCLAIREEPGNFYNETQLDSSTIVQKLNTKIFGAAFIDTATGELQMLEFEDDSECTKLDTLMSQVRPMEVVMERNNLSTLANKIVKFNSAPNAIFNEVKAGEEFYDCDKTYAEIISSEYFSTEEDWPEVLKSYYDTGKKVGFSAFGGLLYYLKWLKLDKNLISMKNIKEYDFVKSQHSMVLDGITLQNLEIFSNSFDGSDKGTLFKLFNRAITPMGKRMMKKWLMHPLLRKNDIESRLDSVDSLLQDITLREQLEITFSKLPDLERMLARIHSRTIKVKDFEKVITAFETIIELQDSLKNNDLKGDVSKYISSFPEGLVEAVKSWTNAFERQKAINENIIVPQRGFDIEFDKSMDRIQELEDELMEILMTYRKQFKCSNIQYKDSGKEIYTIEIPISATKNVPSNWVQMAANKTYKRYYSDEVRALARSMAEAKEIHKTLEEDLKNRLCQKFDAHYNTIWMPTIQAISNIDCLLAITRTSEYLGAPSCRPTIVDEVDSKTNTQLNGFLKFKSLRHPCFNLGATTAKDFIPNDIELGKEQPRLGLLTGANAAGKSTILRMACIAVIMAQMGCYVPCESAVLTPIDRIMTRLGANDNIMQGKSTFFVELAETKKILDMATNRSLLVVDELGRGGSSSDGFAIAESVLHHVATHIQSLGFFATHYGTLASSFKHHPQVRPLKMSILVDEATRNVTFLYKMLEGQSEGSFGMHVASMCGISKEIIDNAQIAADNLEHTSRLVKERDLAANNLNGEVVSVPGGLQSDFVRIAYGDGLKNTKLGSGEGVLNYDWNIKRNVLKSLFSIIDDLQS
Test: UV cross-linking of [γ-32P]ATP, SDS-PAGE, phosphorimaging
Type: binding
Conditions: labelled compound; no Mg2+, EDTA, pH 8, on ice; Msh2 site at 60 μM ATP, Msh6 site at 1 μM ATP

For Nc1ncnc2c1ncn2[C@@H]1O[C@H](COP(=O)(O)OP(=O)(O)OP(=O)(O)O)[C@@H](O)[C@H]1O [ATP], the “relative ATP binding” value was “Msh2(K694A)–Msh6 and Msh2(K694R)–Msh6 mutant complexes were defective for ATP binding to both”.
